From patent US5591758A, “Organic nitrates, processes for their preparation and their use in the treatment of cardiovascular diseases” (Laboratoires Hoechst, SA, priority 1991, dated 1997)
Where a name gives a salt, the structure may show the parent alone.

Test system: anaesthetised dogs
Assay: Tachyphylaxis model on anaesthetised dogs (repeated i.d. administration)
Assay type: in vivo, dogs (labrador/harrier cross)
Set-up: Δdp/dt average / ΔBPs / ΔBPd / ΔLVEDP / ΔHR / ΔBPs average / ΔBPd average / ΔLVEDP average / ΔHR average: unit not given here
Description: Comparison with isosorbide mononitrate (IS-5-MN).
The product (46) is tested in a tachyphylaxis model on anaesthetised dogs. IS-5-MN is used as reference substance.
8 dogs of each sex, weighing between 16 and 24 kg, are used. These dogs are the progeny of a labrador/harrier cross. Anaesthesia is induced with the aid of sodium pentobarbital (45 mg/kg i.v.) and maintained by i.v. perfusion (flow rate: 8 mg/kg/h). The animals are ventilated, with the aid of a "Bird Mark 7" respirator, using ambient air, and catheterised. […] The arterial blood gases are measured at regular intervals.
IS-5-MN is also dissolved in water and given i.d. in a dosage of 5 mg/kg in a volume of 10 ml/animal.
Three hours (in the case of IS-5-MN) or four hours (in the case of (46)) after the first administration, the compounds are readministered in the same dosage and by the same route. The haemodynamic parameter chosen for the study of the tachyphylaxis is the systolic blood pressure (BPs), insofar as this parameter is very sensitive to the administration of the compounds.

[1] = i.d., IS-5-MN 5 mg/kg, (46) 0.75 mg/kg
[2] = n = 4, 1st administration, 0.75 mg/kg i.d., 5 min
[3] = n = 4, 1st administration, 0.75 mg/kg i.d., 10 min
[4] = n = 4, 1st administration, 0.75 mg/kg i.d., 15 min
[5] = n = 4, 1st administration, 0.75 mg/kg i.d., 30 min
[6] = n = 4, 1st administration, 0.75 mg/kg i.d., 60 min
[7] = n = 4, 1st administration, 0.75 mg/kg i.d., 120 min
[8] = n = 4, 1st administration, 0.75 mg/kg i.d., 180 min
[9] = n = 4, 1st administration, 0.75 mg/kg i.d., 240 min
[10] = n = 4, 2nd administration, 0.75 mg/kg i.d., 5 min
[11] = n = 4, 2nd administration, 0.75 mg/kg i.d., 10 min
[12] = n = 4, 2nd administration, 0.75 mg/kg i.d., 15 min
[13] = n = 4, 2nd administration, 0.75 mg/kg i.d., 30 min
[14] = n = 4, 2nd administration, 0.75 mg/kg i.d., 60 min
[15] = n = 4, 2nd administration, 0.75 mg/kg i.d., 120 min

For `O=C(CNC(=O)[C@@H]1CSCN1)N[C@H]1CO[C@H]2[C@@H]1OC[C@@H]2O[N+](=O)[O-]` [Compound 46, 5-[[2-[[(4-L-Thiazolidinyl)carbonyl]amino]-1oxoethyl]amino]-5-deoxy-2-O-nitro-1,4:3,6-dianhydro-L-iditol monohydrochloride], the “fall in the BPs, first administration, on average” value (0.75 mg/kg i.d.) was -30 mmHg, the period of action (compared with IS-5-MN, first administration) was “longer” and the “development of tachyphylaxis after repeated administration” value (dogs, two i.d. administrations) was “absence of the development of tachyphylaxis”. For the same compound, the “maximum fall in the BP after second administration” value [1] was -33 mmHg, the “time of maximum effect on BPs after first administration” value [1] was 60 min and the “time of maximum fall in the BP after second administration” value [1] was 60 min. The ΔBPd average [2] was -4, the ΔBPs average [2] was -5 and the ΔHR average [2] was -1. For the same compound, the ΔLVEDP average [2] was -0, the Δdp/dt average [2] was 0 and the ΔBPd average [3] was -11. The ΔBPs average [3] was -18, the ΔHR average [3] was -1 and the ΔLVEDP average [3] was -2. It also gave a Δdp/dt average [3] of -100, a ΔBPd average [4] of -16 and a ΔBPs average [4] of -26. It also gave a ΔHR average [4] of -1, a ΔLVEDP average [4] of -2 and a Δdp/dt average [4] of -125. The ΔBPd average [5] was -20, the ΔBPs average [5] was -30 and the ΔHR average [5] was -2. The ΔLVEDP average [5] was -2, the Δdp/dt average [5] was -150 and the ΔBPd average [6] was -20. It also gave a ΔBPs average [6] of -33, a ΔHR average [6] of -8 and a ΔLVEDP average [6] of -3. For the same compound, the Δdp/dt average [6] was -200, the ΔBPd average [7] was -20 and the ΔBPs average [7] was -31. It also gave a ΔHR average [7] of -10, a ΔLVEDP average [7] of -4 and a Δdp/dt average [7] of -250. The ΔBPd average [8] was -15, the ΔBPs average [8] was -24 and the ΔHR average [8] was -6. It also gave a ΔLVEDP average [8] of -4, a Δdp/dt average [8] of -150 and a ΔBPd average [9] of -7. It also gave a ΔBPs average [9] of -12, a ΔHR average [9] of 0 and a ΔLVEDP average [9] of -4. It also gave a Δdp/dt average [9] of 25, a ΔBPd average [10] of -5 and a ΔBPs average [10] of -6. The ΔHR average [10] was 0, the ΔLVEDP average [10] was 0 and the Δdp/dt average [10] was -50. For the same compound, the ΔBPd average [11] was -6, the ΔBPs average [11] was -11 and the ΔHR average [11] was 0. For the same compound, the ΔLVEDP average [11] was 0, the Δdp/dt average [11] was -75 and the ΔBPd average [12] was -10. For the same compound, the ΔBPs average [12] was -18, the ΔHR average [12] was -1 and the ΔLVEDP average [12] was 0. The Δdp/dt average [12] was -125, the ΔBPd average [13] was -15 and the ΔBPs average [13] was -25. For the same compound, the ΔHR average [13] was -1, the ΔLVEDP average [13] was -1 and the Δdp/dt average [13] was -225. For the same compound, the ΔBPd average [14] was -19, the ΔBPs average [14] was -33 and the ΔHR average [14] was -4. The ΔLVEDP average [14] was -2, the Δdp/dt average [14] was 350 and the ΔBPd average [15] was -15. It also gave a ΔBPs average [15] of -26.
